Experimental data: publication PMC5937946 (Biochemistry, 2017)
Read-outs that look alike come from different tables or passages of the source.

How the values were obtained:
[1] = test system: C. albicans (ATCC, SC5314)
[2] = test system: C. albicans cell-associated Cu; test: ICP-MS of cell-associated Cu content; assay type: cell-based, Candida albicans; details: cells grown overnight with BCS
[3] = test system: C. albicans (ATCC, SC5314); test: Antifungal susceptibility assay; details: for growth inhibition of C. albicans by metal ion alone: concentration range tested 0–100 µM, no peptide
[4] = pH 7.4; cited from earlier work
[5] = pH 7.4; cited from earlier work; remark: listed apart in the source

SMILES: Cc1cc(-c2ccc(S(=O)(=O)O)cc2)c2ccc3c(-c4ccc(S(=O)(=O)O)cc4)cc(C)nc3c2n1 [BCS, bathocuproine disulphonate]
- concentrations well tolerated by C. albicans, ligand alone [1]: ≤ 2000 µM
- decrease in cell-associated Cu compared to basal level [2]: 70%

SMILES: O=S(=O)([O-])[O-].[Cu+2] [CuSO4, copper sulfate]
- growth inhibition of C. albicans by metal ion alone [3]: Neither Cu(II) nor Fe(III) by themselves inhibited growth

SMILES: O=C(O)CN(CCN(CC(=O)O)CC(=O)O)CC(=O)O [EDTA, ethylenediaminetetraacetic acid]
- concentrations well tolerated by C. albicans, ligand alone ([3]; initial susceptibility testing of the ligands alone): ≤ 250 µM

SMILES: [Cl][Fe]([Cl])[Cl] [Fe(III), FeCl3]
- growth inhibition of C. albicans by metal ion alone [3]: Neither Cu(II) nor Fe(III) by themselves inhibited growth

SMILES: O=S(=O)([O-])c1ccc(-c2nnc(-c3ccccn3)nc2-c2ccc(S(=O)(=O)[O-])cc2)cc1.[Na+].[Na+] [Fz, Ferrozine]
- log KFz2Cu(I) [4]: 11.56

SMILES: O=C(O)CN(CC(=O)O)CC(=O)O [NTA, nitrilotriacetic acid]
- log KNTA(Cu(II)) [5]: 10.68
